One data set relates to GM-CSF. The data set is described as follows: GM-CSF expression level of sorted CD4-positive memory T-cells of MS patients (ELISA of culture supernatant). The conditions noted are these: 0.3 mg single oral. Type of data set: in vivo, human. On the procedure:
A single dose of compound 31, which is a synthetic glycolipid of the present invention, described in the first aspect was orally administered to each of 2 MS patients (subjects) shown in Table 2 above after obtainment of informed consent. The dose was set to 0.3 mg per person.
Subsequently, T-cell subfractions were prepared from the peripheral blood of each subject by using the density gradient centrifugation method. First, a total of 20 mL of blood was collected from the vein of each subject 24 hours (1st day), 48 hours (2nd day), 72 hours (3rd day), 168 hours (7th day), and 192 hours (8th day) after the administration of compound 31 by using two 10-mL heparin sodium-containing vacuum blood collection tubes. For a control, 20 mL of blood was similarly collected from the vein of each subject one day before the administration of compound 31.
The collected PBMCs were stained with antibodies by the following method. First, 10 μL of a solution consisting of 20 μL of MACS buffer, 0.25 μL of APC-Cy7-anti-CD3 antibody (BioLegend, Inc.), 1 μL of PB-anti-CD4 antibody (BioLegend, Inc.), 1 μL of PerCP-Cy5.5-anti-CD45RA antibody (BioLegend, Inc.), and 1 μL of PC7-anti-CD56 antibody (Beckman Coulter, Inc.) was added to 6×10^6 cells of PBMCs, thoroughly mixed by vortexing, and then left on ice for 20 minutes. CD56 is a detection marker of cells having NK activity, and CD3^−CD56^− cells indicate being antigen-presenting cells (APCs). […]
mCD4T and APC obtained by the sorting were each suspended in a medium consisting of 500 mL of RPMI1640 (GIBCO/Thermo Fisher Scientific Inc.), 5 mL of glutamine (200 mM, Wako Pure Chemical Industries, Ltd.), 5 mL of Pen/strep (10,000 U/mL, GIBCO/Thermo Fisher Scientific Inc.), 0.5 mL of 2-mercaptoethanol (GIBCO/Thermo Fisher Scientific Inc.), and 50 mL of 10% (v/v) Cellect FETAL BOVINE SERUM (MP Biomedicals, LLC), and the number of cells was measured. […]
After the culture, a culture supernatant was collected, and IFN-γ, IL-4, IL-17, and GM-CSF were measured by the ELISA method. […]
(ELISA stands for enzyme-linked immunosorbent assay.)

A short description of data set [1]: Disposition after single oral dose, rat. Type of data set: in vivo. The note with it: male rat, 10 mg/kg single oral, 14C-labeled, fasting. How it is done:
After a single dose of compound 31 labeled with ^14C was orally administered at a predetermined dose to each of a male mouse, a male rat, and a male cynomolgus monkey under fasting conditions, the concentration in blood was measured after a lapse of a given time, and parameters such as maximum plasma concentration Cmax, time Tmax to reach the maximum plasma concentration, half-life t1/2, area under curve AUC0-∞, mean retention time MRT0-∞, and bioavailability BA were calculated. The concentration in blood in humans (normal subjects) was measured and each of the parameters was calculated, in the similar manner as above except that ^14C-unlabeled compound 31 was used.
In the tables, “N.D.” means not detected.

In data set [2] the test system is GM-CSF production from lymph node T-cells. Put plainly: Amount of GM-CSF in lymph node cell culture supernatants of mice after oral dose (ELISA). Format: in vivo, C57BL/6 mice. The conditions noted are these: for suppressive effects on GM-CSF production from lymph node T-cells: oral high dose 1 mg/kg. On the procedure: Compound 31 was orally administered to 8-week-old C57BL/6 mice (female) by using a probe. The dose employed 15 μg/kg (low dose) of compound 31 or 1 mg/kg (high dose) of compound 31 dissolved in 200 μL of mouse drinking water. As a control, 200 μL of mouse drinking water was administered alone.
2 days or 7 days after the oral administration of compound 31, each mouse was euthanized by cervical dislocation, and axillary and inguinal lymph nodes were collected. The collected lymph nodes were disrupted on BD Falcon Cell Strainer (Becton, Dickinson and Company) having a diameter of 40 μm, PBS was added, and the resultant was recovered into a 50-mL conical tube and centrifuged at 1500 rpm for 5 minutes, and then, a supernatant was removed by suction.
The recovered cells were suspended into a single cell suspension by adding 1000 μL of an RPMI medium (Life Technologies Corp.) containing 10% FBS (Fetal Bovine Serum; Life Technologies Corp.), and then, the number of cells was measured with a counting chamber.
On the day prior to the lymph node collection from the mice after the administration, an anti-CD3 monoclonal antibody (self-produced) and an anti-CD28 antibody (Becton, Dickinson and Company) were each adjusted to 1 μg/mL with PBS, placed at 50 μL to each well of BD Falcon 96-well flat bottom plate (Becton, Dickinson and Company), and stored at 4° C. so that the plate was coated with the anti-CD3/CD28 antibodies. The prepared single cell suspension was inoculated at 5×10^5 cells/well to the plate and then cultured at 37° C. for 48 hours in a 5% CO2 incubator to perform stimulation with the anti-CD3 antibody and the anti-CD28 antibody.
A supernatant was recovered, and the concentration of GM-CS contained in the culture supernatant was measured by using an ELISA kit (OptEIA Mouse GM-CSF ELISA set; Becton, Dickinson and Company) according to the attached document.

By AUC(0-inf) is commonly meant total exposure, with the tail of the curve extrapolated. For orientation: AUC(0-t) means the area under the concentration-time curve up to a stated or last time point. High values mean high exposure, low ones low exposure. For orientation: half-life means the time in which the quantity being followed falls by half. High values mean slow decline, low ones rapid decline. One may read the Cmax as the peak of the concentration-time curve. By Tmax is commonly meant the time from dosing to the highest level.

As to `CCCCCCCCCCCCCCCCCCCCCCCC(=O)NC(COC1OC(CO)C(O)C(O)C1O)[C@H](O)C(O)CCCCC` (stereo in doubt) [compound 31, (2S,3S,4R)-1-O-(α-D-galactosyl)-2-(N-tetracosanoylamino)-1,3,4-nonanetriol], the GM-CSF expression level in the data set with GM-CSF (day 8, MBP stimulation, day −1 value 153.15) was 50.81; in the data set with GM-CSF (day 8, OVA stimulation, day −1 value 224.87), 168.45. Further, the “change of expression level of GM-CSF” value in the data set on GM-CSF (day8 vs day-1) is reported as “decreased”. Moreover, the AUC(0-inf) in data set [1] (blood) was 3.33 µg·h/mL. Besides, in data set [1] (blood), the AUC(0-t) amounted to 3.13 µg·h/mL. In addition, the half-life in data set [1] (blood) is 26 h. The MRT inf in data set [1] (blood, read-out: MRT0-∞) came out at 32.4 h. In data set [1], the BA amounted to 0.51%. The Rate of absorption in data set [1] is 0.96%. Besides, the concentration in blood in data set [1] (4 h) was 31; in data set [1] (8 h), 128; in data set [1] (12 h) it was 101; in data set [1] (24 h), 47.1; in data set [1] (48 h) it was 18.5; in data set [1] (72 h), 10.2. This compound also displayed a Cmax in data set [1] (plasma) of 0.128 µg/mL. Besides, the Tmax in data set [1] (plasma) is 8 h. The “suppressive effects on GM-CSF production from lymph node T-cells” value was “not seen” in data set [2] (2nd day after administration) and “observed” in data set [2] (7th day after administration). Further, the “GM-CSF production from lymph node T-cells” value in data set [2] (oral low dose 15 μg/kg, anti-CD3/CD28 stimulation 48 h, vs vehicle) is “significantly suppressed”.

These data come from patent US12447167B2, “GM-CSF-producing t-cell control agent and Th1/Th2 immune balance regulator” (National Center of Neurology and Psychiatry, priority 2014, dated 2025).
